Data from patent publication US20220282217A1, “COMPOSITIONS AND METHODS FOR PREPARING T CELL COMPOSITIONS AND USES THEREOF” (priority 2019, published 2022).
Read-outs that look alike come from different tables or passages of the source. Where a SMILES comes first, the peptide text is derived from it.

Legend:
HLA-A02.01 [1] = biological target: HLA-A02.01 (Homo sapiens, UniProt P04439, D140Y/D185E/D98H/E176V/E277Q/G131W/G231S/I119V/I121R/I166T/I218V/L300P/L318F/N151K/N90K/P208A/P217A/Q86G/Q94H/R138H/R169H/T345S); experiment: Class I MHC peptide binding affinity (displacement of radiolabeled reference peptide)
How it was run: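 MHC class I complexes were loaded with a radiolabeled reference peptide, then exposed to test peptides over a range of concentrations for 2 days. Reference peptide still bound to the complexes was quantified by size-exclusion gel filtration.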

HLA-A02.01 [2] = biological target: T1, HLA-A02.01 (Homo sapiens, UniProt P04439, D140Y/D185E/D98H/E176V/E277Q/G131W/G231S/I119V/I121R/I166T/I218V/N151K/N90K/P208A/P217A/Q86G/Q94H/R138H/R169H); experiment: Class I MHC peptide binding stability (pMHC-I dissociation, 125I-labeled light chain); details: for Stability (T1/2 (h)): allele A02.01; for Measured stability: HLA Allele A02.01, time for half of the complexes to dissociate at 37° C.
T1 construct: made in house; host or cells: E. coli

[3] = allele A02.01, read-out: Observed Affinity (IC50, (nM))
[4] = Observed Affinity (IC50, (nM)), allele A02.01
[5] = Measured Affinity (nM), HLA Allele A02.01

| Compound | IC50 (HLA-A02.01 [1]; [3]) | Stability (T1/2 (h)) (HLA-A02.01 [2]) | further results |
| --- | --- | --- | --- |
| CC[C@H](C)[C@H](NC(=O)[C@H](Cc1ccc(O)cc1)NC(=O)[C@H](CC(C)C)NC(=O)[C@@H](N)CC(C)C)C(=O)N[C@H](C(=O)N[C@@H](C)C(=O)N[C@@H](Cc1ccccc1)C(=O)N[C@@H](Cc1ccccc1)C(=O)N[C@@H](CC(C)C)C(=O)O)[C@@H](C)O | 713 nM | 17 h |  |
| CC(C)C[C@H](NC(=O)[C@H](CO)NC(=O)[C@H](CC(N)=O)NC(=O)[C@H](CS)NC(=O)[C@H](CCC(=O)O)NC(=O)[C@H](Cc1c[nH]cn1)NC(=O)[C@H](CC(C)C)NC(=O)[C@@H](NC(=O)[C@@H](N)CCC(N)=O)C(C)C)C(=O)O | 7770 nM | 0.5 h |  |
| CC(C)[C@H](NC(=O)[C@H](CO)NC(=O)[C@H](Cc1ccccc1)NC(=O)[C@H](Cc1ccccc1)NC(=O)[C@H](Cc1ccccc1)NC(=O)[C@H](Cc1ccccc1)NC(=O)[C@H](CS)NC(=O)[C@@H](NC(=O)[C@@H](N)CO)C(C)C)C(=O)O | 175 nM | 9.4 h |  |
| CC(C)[C@H](N)C(=O)N[C@H](C(=O)N1CCC[C@H]1C(=O)N[C@@H](CS)C(=O)N[C@@H](CCC(=O)O)C(=O)N1CCC[C@H]1C(=O)N1CCC[C@H]1C(=O)N[C@@H](CCC(=O)O)C(=O)N[C@H](C(=O)O)C(C)C)C(C)C | 187 nM | 0.9 h |  |
| CC(C)C[C@H](NC(=O)[C@@H](NC(=O)[C@H](CC(=O)O)NC(=O)[C@H](CC(C)C)NC(=O)[C@@H](NC(=O)[C@@H](N)Cc1ccc(O)cc1)[C@@H](C)O)C(C)C)C(=O)N[C@@H](CCC(=O)O)C(=O)N[C@@H](CCCNC(=N)N)C(=O)N[C@@H](CS)C(=O)O | 1760 nM | 6.6 h |  |
| CSCC[C@H](NC(=O)[C@@H](NC(=O)[C@H](Cc1ccc(O)cc1)NC(=O)[C@H](C)NC(=O)[C@H](CCSC)NC(=O)[C@@H](NC(=O)[C@@H](N)Cc1ccc(O)cc1)C(C)C)C(C)C)C(=O)N[C@@H](C)C(=O)NCC(=O)N[C@H](C(=O)O)C(C)C | 57 nM | 20.9 h |  |
| CC[C@H](C)[C@H](NC(=O)[C@H](Cc1ccccc1)NC(=O)[C@H](CS)NC(=O)[C@H](CO)NC(=O)[C@H](CC(N)=O)NC(=O)[C@H](CO)NC(=O)[C@H](C)NC(=O)[C@H](CO)NC(=O)[C@H](CC(C)C)NC(=O)[C@H](C)N)C(=O)O (H-ALSASNSCFI-OH; N-terminus and C-terminus assumed) | 226 nM | 0.8 h |  |
| CC(C)C[C@H](NC(=O)[C@H](C)N)C(=O)N[C@@H](CO)C(=O)N[C@@H](CCC(=O)O)C(=O)N[C@@H](Cc1c[nH]cn1)C(=O)N[C@@H](CS)C(=O)N1CCC[C@H]1C(=O)N[C@H](C(=O)N[C@H](C(=O)O)[C@@H](C)O)[C@@H](C)O (H-ALSEHCPTT-OH; N-terminus and C-terminus assumed) | 79 nM | 27.3 h |  |
| CC(C)C[C@H](NC(=O)[C@H](CC(C)C)NC(=O)[C@@H](NC(=O)[C@H](CC(=O)O)NC(=O)[C@H](C)NC(=O)[C@H](CC(C)C)NC(=O)[C@@H](N)CS)C(C)C)C(=O)N[C@@H](CO)C(=O)N[C@H](C(=O)O)C(C)C (H-CLADVLLSV-OH; N-terminus and C-terminus assumed) | 219 nM | 24 h |  |
| CC[C@H](C)[C@H](NC(=O)[C@H](Cc1ccc(O)cc1)NC(=O)[C@H](CCC(=O)O)NC(=O)CNC(=O)[C@H](CO)NC(=O)[C@@H](N)Cc1ccccc1)C(=O)N1CCC[C@H]1C(=O)N[C@H](C(=O)N[C@H](C(=O)O)C(C)C)[C@@H](C)O (H-FSGEYIPTV-OH; N-terminus and C-terminus assumed) | 3 nM | 6.8 h |  |
| CC(C)C[C@H](NC(=O)CN)C(=O)N[C@@H](CC(C)C)C(=O)N[C@@H](C)C(=O)N[C@@H](Cc1ccccc1)C(=O)N[C@@H](Cc1c[nH]c2ccccc12)C(=O)N[C@@H](CC(=O)O)C(=O)N[C@@H](CO)C(=O)N[C@@H](CCC(N)=O)C(=O)N[C@H](C(=O)O)C(C)C (H-GLLAFWDSQV-OH; N-terminus and C-terminus assumed) | 10 nM | 14.2 h |  |
| CSCC[C@H](NC(=O)[C@H](CCC(=O)O)NC(=O)[C@H](CC(C)C)NC(=O)[C@H](CC(C)C)NC(=O)[C@H](CC(C)C)NC(=O)CN)C(=O)N[C@@H](CC(C)C)C(=O)N[C@@H](CC(=O)O)C(=O)N[C@@H](C)C(=O)O (H-GLLLEMLDA-OH; N-terminus and C-terminus assumed) | 558 nM | 0.4 h |  |
| CC(C)C[C@H](NC(=O)[C@H](Cc1ccccc1)NC(=O)[C@@H](NC(=O)[C@H](Cc1ccc(O)cc1)NC(=O)[C@@H](NC(=O)CN)C(C)C)[C@@H](C)O)C(=O)N1CCC[C@H]1C(=O)N[C@@H](CO)C(=O)N[C@H](C(=O)O)[C@@H](C)O (H-GVYTFLPST-OH; N-terminus and C-terminus assumed) | 779 nM | 1.3 h |  |
| CC[C@H](C)[C@H](N)C(=O)N[C@@H](CC(C)C)C(=O)N[C@@H](CCSC)C(=O)N[C@@H](CCC(=O)O)C(=O)N[C@@H](CC(C)C)C(=O)N[C@@H](CCSC)C(=O)N[C@@H](C)C(=O)NCC(=O)NCC(=O)O (H-ILMELMAGG-OH; N-terminus and C-terminus assumed) | 223 nM | 0.5 h |  |
| CC[C@H](C)[C@H](N)C(=O)N[C@@H](CCSC)C(=O)N[C@@H](CCC(N)=O)C(=O)N[C@@H](CC(C)C)C(=O)N[C@@H](CCSC)C(=O)N1CCC[C@H]1C(=O)N[C@@H](Cc1ccccc1)C(=O)NCC(=O)N[C@@H](CS)C(=O)O (H-IMQLMPFGC-OH; N-terminus and C-terminus assumed) | 1610 nM | 0.4 h | Kd (HLA-A02.01 [1]; EGFR T790M peptides, HLA allele A02.01, read-out: Affinity): 1210 nM; Stability (half-life (hr.)) (HLA-A02.01 [2]; EGFR T790M peptides, HLA allele A02.01): 22.21 min |
| CC(C)C[C@H](NC(=O)[C@@H](N)CCCCN)C(=O)NCC(=O)NCC(=O)NCC(=O)N[C@@H](CCC(N)=O)C(=O)N[C@@H](Cc1c[nH]cn1)C(=O)NCC(=O)N[C@@H](CCC(=O)O)C(=O)N[C@H](C(=O)O)C(C)C (H-KLGGGQHGEV-OH; N-terminus and C-terminus assumed) |  | 0.4 h | IC50 (HLA-A02.01 [1]; [4]): 387 nM |
| CC(C)C[C@H](NC(=O)[C@@H](N)CC(C)C)C(=O)N[C@@H](C)C(=O)N[C@@H](Cc1ccccc1)C(=O)N[C@@H](Cc1c[nH]c2ccccc12)C(=O)N[C@@H](CC(=O)O)C(=O)N[C@@H](CO)C(=O)N[C@@H](CCC(N)=O)C(=O)N[C@H](C(=O)O)C(C)C (H-LLAFWDSQV-OH; N-terminus and C-terminus assumed) | 68 nM | 12.8 h |  |
| CSCC[C@H](NC(=O)[C@H](CC(C)C)NC(=O)[C@H](CCC(=O)O)NC(=O)[C@H](CCSC)NC(=O)[C@@H](N)CC(C)C)C(=O)N[C@@H](C)C(=O)NCC(=O)NCC(=O)N[C@@H](CC(=O)O)C(=O)N[C@@H](CC(C)C)C(=O)O (H-LMELMAGGDL-OH; N-terminus and C-terminus assumed) | 311 nM | 8.9 h |  |
| CC(C)C[C@H](N)C(=O)N[C@H](C(=O)N[C@H](C(=O)N[C@H](C(=O)NCC(=O)N[C@@H](C)C(=O)N[C@@H](CS)C(=O)NCC(=O)N[C@H](C(=O)O)C(C)C)C(C)C)C(C)C)C(C)C (H-LVVVGACGV-OH; N-terminus and C-terminus assumed) |  | 0.6 h | IC50 (HLA-A02.01 [1]; [5]): 667 nM; IC50 (HLA-A02.01 [1]; [4]): 1210 nM; Measured stability (HLA-A02.01 [2]): 0.6 h |
| CC(C)C[C@H](N)C(=O)N[C@H](C(=O)N[C@H](C(=O)N[C@H](C(=O)NCC(=O)N[C@@H](C)C(=O)N[C@@H](CC(=O)O)C(=O)NCC(=O)N[C@H](C(=O)O)C(C)C)C(C)C)C(C)C)C(C)C (H-LVVVGADGV-OH; N-terminus and C-terminus assumed) |  |  | IC50 (HLA-A02.01 [1]; [5]): 977 nM; IC50 (HLA-A02.01 [1]; [4]): 1190 nM; Measured stability (HLA-A02.01 [2]): 0.0 h |
| CC[C@H](C)[C@H](NC(=O)[C@H](CC(N)=O)NC(=O)[C@@H](N)CCSC)C(=O)N[C@@H](C)C(=O)N[C@@H](CC(N)=O)C(=O)N[C@@H](CC(C)C)C(=O)N[C@@H](CC(C)C)C(=O)NCC(=O)N[C@@H](C)C(=O)O (H-MNIANLLGA-OH; N-terminus and C-terminus assumed) |  | 0.3 h | IC50 (HLA-A02.01 [1]; [4]): 128 nM |
| CSCC[C@H](NC(=O)[C@H](CCC(=O)O)NC(=O)[C@H](CC(C)C)NC(=O)[C@H](CC(C)C)NC(=O)[C@H](CC(C)C)NC(=O)[C@H](CC(=O)O)NC(=O)[C@H](CS)NC(=O)[C@H](CC(C)C)NC(=O)[C@@H]1CCCN1)C(=O)O (H-PLCDLLLEM-OH; N-terminus and C-terminus assumed) | 602 nM | 0.8 h |  |
| CSCC[C@H](NC(=O)[C@H](CCC(=O)O)NC(=O)[C@H](CC(C)C)NC(=O)[C@H](CC(C)C)NC(=O)[C@H](CC(C)C)NC(=O)[C@H](CC(=O)O)NC(=O)[C@H](CS)NC(=O)[C@H](CC(C)C)NC(=O)[C@@H]1CCCN1)C(=O)N[C@@H](CC(C)C)C(=O)O (H-PLCDLLLEML-OH; N-terminus and C-terminus assumed) | 2010 nM | 0.9 h |  |
